Patent EP0615158A1, “A silver halide photographic light-sensitive material” (KONICA CORPORATION, priority 1993, dated 1994)

Details: method of Shin Jikken Kagaku Koza, Kihon Sosa 1

SMILES	solubility in water at 25°C [% by weight]
C=C(C)C(=O)OCCCC [butyl methacrylate]	0.03
C=Cc1ccccc1 [styrene]	0.03
